According to patent publication US8636951B2, “Bio-terrorism counteraction using ozone and hydrogen peroxide” (priority 2010, dated 2014):

Tested on: Bacillus subtilis
Assay type: cell-based

| Compound | A: count of viable Bacillus colonies at 10 dilution | B: count of viable Bacillus colonies at 100 dilution | C: count of viable Bacillus colonies at 1000 dilution | D: count of viable Bacillus colonies at 10000 dilution | Log10 RED |
| --- | --- | --- | --- | --- | --- |
| OO [hydrogen peroxide] | TNTCT | NTC | 210 | 12 | 0 Log10 |
| O=[O+][O-] [ozone] | TNTCT | NTC | – | – | – |
